Bounds are passed on as bounds.

One test deals with TF-1 cells. The test is described as follows: Cell proliferation assay (TF-1). The following applies: 10 ng/ml human β-NGF, 72 hours exposure, read-out: IC50 (nM) Cell-based assay (TF-1). How it is done: (§1) Doxorubicin was purchased from Sigma Aldrich (D1515). All compounds were diluted in DMSO (Sigma Aldrich, D2650). AlamarBlue® cell viability reagent was purchased from Thermo Scientific (88952). CellTiter 96® AQueous One Solution Cell proliferation assay was purchased from Promega. KM12-luc cells were obtained from JCRB (National Institute of Health Sciences, Tokyo, Japan). They were maintained in DMEM medium (GIB-11965-118) supplemented with 10% fetal bovine serum (Gibco, 16000-044) and MEM Non-Essential Amino Acids Solution (Thermo Scientific, 11140-050). TF-1 cells were obtained from ATCC. They were maintained in RPMI medium (GIB-A10491) supplemented with 10% fetal bovine serum (Gibco, 16000-044), GM-CSF (Thermo Scientific, 11140-050), and β-NGF (R&D systems). Trypsin/EDTA was purchased from Gibco (GIB-25300-054, 0.05%). 96-well plates were purchased from Corning Inc.
(§2) The proliferation assay was performed for Chemical Compounds 1-61 s in media supplemented with 10% FBS, using AlamarBlue® cell viability reagent or CellTiter 96® AQueous One Solution Cell proliferation assay kit. Cells were cultured in humidified 37° C. incubator with 5% CO2. To evaluate the antiproliferation activity of compounds, TF-1 cells were adjusted to GM-CSF free media (RPMI, 10% FBS, and 1% penicillin-streptomycin) for 16 hr and were seeded in 96-well plates at 30,000 cells/well with medium (RPMI, 10% FBS, 1% penicillin-streptomycin and 10 ng/ml human β-NGF). KM12-luc were seeded at 10,000 cells per well into 96-well plates. After overnight incubation, serial dilutions of compounds were added to triplicate wells, and cells were exposed for 72 hours. The final concentration of DMSO was adjusted to 0.5% in media. Quantitation of cell growth was assessed using two kinds of reagent. 20 ul of AlamarBlue® reagent in an amount equal to 10% of the culture volume was added to each well and were incubated in humidified 37° C. incubator with 5% CO2 for 2 hr. Otherwise, 20 ul of CellTiter 96® reagent was added to each well and were incubated in the same conditions as previously described. Data were plotted, and GI50 values were calculated using GraphPad software. Table 1 below includes the results of the assays.

The test system of a further test is KM12-luc cells. The test is described as follows: Cell proliferation assay (KM12). To be noted: 72 hours exposure, read-out: IC50 (nM) Cell-based assay (KM12). How it is done:
as §1, §2

A further test addresses T1, TRK A, B & C kinase.
T1 construct: fused on or other part: Carna's Trk kinases are usually GST-tagged cytoplasmic domains
The test is described as follows: TRK A, B & C kinase assay (ADP-Glo / HTRF KinEASE-TK). The test is classed as biochemical. The following applies: ADP-Glo or HTRF KinEASE-TK kit, isoform not specified, read-out: IC50 (nM) Enzymatic assay. As to the method: ADP-Glo assay kit was purchased from Promega. poly (Glu, Tyr), Magnesium sulfate, Bovine serum albumin (BSA) and dimethylsulfoxide(DMSO) were purchased from Sigma-Aldrich. Tris-HCl buffer was purchased from BD Gentest. HTRF KinEASE-TK kit was purchased from cisbio. TRK A, B & C kinase was purchased from Carna bioscience.
Kinase assay was performed for Chemical Compounds 1-61 using two methods using luminescent ADP-Glo assay kit (Promega) and HTRF KinEASE-TK assay kit (cisbio). The luminescent ADP-Glo assay kit (Promega) measures ADP formed from a kinase reaction. ADP converted into ATP, which is then converted into light by Ultra-Glo luciferase. The HTRF KinEASE-TK assay kit (cisbio) measures tyrosine kinase activities using one substrate and a universal detection system.
ADP-Glo Assay Kit (Promega)
The protein kinase assay was performed for Chemical Compounds 1-61 at […] concentrations are 0.4 ng/ul of TrKA, 0.5 ng/ul of TrKB and 3 ng/ul of TrKC, respectively), 5 μL of 1 ug/ul stock solution of poly(glu, Tyr), 5 μL of compounds or assay buffer, 5 μL of ATP (125 μM stock solution).
The assay was started by incubating the reaction mixture in a 96-well plate at 30° C. for 1 hr. After the incubation, the assay was terminated by the addition of 25 […] Detection Reagent was added, and the 96-well plate was shaken and then incubated for additional 30 min at ambient temperature. The 96-well reaction plate was then read on an Enspire plate reader. The IC50 values were derived through a curve fitting using SigmaPlot.
HTRF KinEASE-TK Assay Kit (Cisbio)
The HTRF KinEASE-TK assay was performed for Chemical Compounds 1-61 in 384-well low volume microplate (Greiner). The HTRF KinEASE-TK assay format involves the two steps. The first step is kinase reaction step. This kinase reaction step was performed at RT (room temperature) in final volume of 10 ul according to the following assay reaction recipe: 10 ul of kinase mixture (Kinase (2 ul)+ATP (2 ul)+Substrate (2 ul)+Compound (4 ul)). Kinase final concentrations were 0.3 ng/ul of TRKA, 0.1 ng/ul of TRKB, 0.03 ng/ul of TRKC, respectively. ATP final concentrations were 14.7 uM (TRKA), 4.77 uM (TRKB), 25.6 uM (TRKC) respectively. TK-substrate final concentration was 0.3 ng/ul. The mixtures exposed to Dose response concentration (DRC) compound from 0 to 100 nM for 40 min. During the kinase reaction step, the kinase reaction was started by the addition of ATP. Kinase phosphorylates the substrate.
The second is detection step. 10 ul of detection reagents (5 ul Sa-XL 665 in EDTA+5 ul TK Antibody-Eu in EDTA) was added to kinase mixture. This step was performed at room temperature for 1 hr. The detection reagent detects phosphorylated substrates.
Finally 384-well reaction plate was then read on FlexStation 3 machine. The fluorescence was measured at 620 nm (Cryptate) and 665 nm (XL665). A ratio is calculated ([…]/620)×10^4 for each well. The IC50 value was derived through a curve fitting using GraphPad Prism. Table 1 below includes the results of the assays.
In general terms: ADP-Glo turns the ADP formed in a reaction into a luminescent signal.

Consider `Fc1ccc(F)c(C2CCCN2c2ccn3ncc(-c4nnc(C5CC5)s4)c3n2)c1` (stereo not drawn) [Chemical Compound 8, 2-cyclopropyl-5-(5-(2-(2,5-difluorophenyl)pyrrolidin-1-yl)pyrazolo[1,5-a]pyrimidin-3-yl)-1,3,4-thiadiazole], for which the IC50 – broadly, the concentration that inhibits the measured activity by half – was less than 10 nM with TF-1 cells; less than 100 nM in the test on KM12-luc cells; less than 10 nM on TRK A, B & C kinase.

As for `CC(C)(C)c1nnc(-c2cnn3ccc(N4CCCC4c4cc(F)ccc4F)nc23)o1` (stereo not drawn) [Chemical Compound 9, 2-tert-butyl-5-(5-(2-(2,5-difluorophenyl)pyrrolidin-1-yl)pyrazolo[1,5-a]pyrimidin-3-yl)-1,3,4-oxadiazole], the IC50 in the test on TF-1 cells is less than 10 nM; in the test with KM12-luc cells it was less than 10 nM; on TRK A, B & C kinase it was less than 10 nM.

Regarding `CC(C)(C)c1nnc(-c2cnn3ccc(N4CCCC4c4cc(F)ccc4F)nc23)s1` (stereo not drawn) [Chemical Compound 10, 2-tert-butyl-5-(5-(2-(2,5-difluorophenyl)pyrrolidin-1-yl)pyrazolo[1,5-a]pyrimidin-3-yl)-1,3,4-thiadiazole], the IC50 in the test with TF-1 cells is less than 10 nM; in the test with KM12-luc cells, less than 10 nM; at TRK A, B & C kinase, less than 10 nM.

With `Cc1nnc(-c2cnn3ccc(N4CCCC4c4cncc(F)c4)nc23)s1` (stereo not drawn) [Chemical Compound 11, 2-(5-(2-(5-fluoropyridin-3-yl)pyrrolidin-1-yl)pyrazolo[1,5-a]pyrimidin-3-yl)-5-methyl-1,3,4-thiadiazole], the half-inhibitory concentration (IC50) was less than 100 nM with TF-1 cells; less than 100 nM with KM12-luc cells; less than 10 nM at TRK A, B & C kinase.

Turning to `CCc1nnc(-c2cnn3ccc(N4CCCC4c4cncc(F)c4)nc23)s1` (stereo not drawn) [Chemical Compound 12, 2-ethyl-5-(5-(2-(5-fluoropyridin-3-yl)pyrrolidin-1-yl)pyrazolo[1,5-a]pyrimidin-3-yl)-1,3,4-thiadiazole], the IC50 was less than 100 nM in the test with TF-1 cells; less than 100 nM with KM12-luc cells; less than 10 nM at TRK A, B & C kinase.

Regarding `CC(C)c1nnc(-c2cnn3ccc(N4CCCC4c4cncc(F)c4)nc23)s1` (stereo not drawn) [Chemical Compound 13, 2-(5-(2-(5-fluoropyridin-3-yl)pyrrolidin-1-yl)pyrazolo[1,5-a]pyrimidin-3-yl)-5-isopropyl-1,3,4-thiadiazole], the IC50 is less than 100 nM with TF-1 cells; less than 100 nM in the test on KM12-luc cells; less than 10 nM at TRK A, B & C kinase.

With `Fc1cncc(C2CCCN2c2ccn3ncc(-c4nnc(C5CC5)s4)c3n2)c1` (stereo not drawn) [Chemical Compound 14, 2-cyclopropyl-5-(5-(2-(5-fluoropyridin-3-yl)pyrrolidin-1-yl)pyrazolo[1,5-a]pyrimidin-3-yl)-1,3,4-thiadiazole], the IC50 was less than 100 nM with TF-1 cells; less than 100 nM with KM12-luc cells; less than 10 nM at TRK A, B & C kinase.

In the case of `CC(C)(C)c1nnc(-c2cnn3ccc(N4CCCC4c4cncc(F)c4)nc23)s1` (stereo not drawn) [Chemical Compound 15, 2-tert-butyl-5-(5-(2-(5-fluoropyridin-3-yl)pyrrolidin-1-yl)pyrazolo[1,5-a]pyrimidin-3-yl)-1,3,4-thiadiazole], the IC50 with TF-1 cells was less than 100 nM; with KM12-luc cells, less than 100 nM; at TRK A, B & C kinase, less than 10 nM.

As for `CC(C)(C)c1nnc(-c2cnn3ccc(N4CCCC4c4cncc(F)c4)nc23)o1` (stereo not drawn) [Chemical Compound 16, 2-tert-butyl-5-(5-(2-(5-fluoropyridin-3-yl)pyrrolidin-1-yl)pyrazolo[1,5-a]pyrimidin-3-yl)-1,3,4-oxadiazole], the 50% inhibitory concentration (IC50) in the test with TF-1 cells is less than 100 nM; with KM12-luc cells, less than 100 nM; on TRK A, B & C kinase it was less than 10 nM.

For the molecule `CC(C)c1nnc(-c2cnn3ccc(N4CCC[C@@H]4c4cncc(F)c4)nc23)s1` [Chemical Compound 17, (R)-2-(5-(2-(5-fluoropyridin-3-yl)pyrrolidin-1-yl)pyrazolo[1,5-a]pyrimidin-3-yl)-5-isopropyl-1,3,4-thiadiazole], the half-inhibitory concentration (IC50) in the test on TF-1 cells is less than 10 nM; in the test with KM12-luc cells it was less than 10 nM; on TRK A, B & C kinase it was less than 10 nM.

Regarding `CC(C)(C)c1nnc(-c2cnn3ccc(N4C[C@@H](F)C[C@@H]4c4cc(F)ccc4F)nc23)o1` [Chemical Compound 26, 2-tert-butyl-5-(5-((2R,4S)-2-(2,5-difluorophenyl)-4-fluoropyrrolidin-1-yl)pyrazolo[1,5-a]pyrimidin-3-yl)-1,3,4-oxadiazole], the IC50 in the test with TF-1 cells was less than 10 nM; with KM12-luc cells it was less than 10 nM; at TRK A, B & C kinase, less than 10 nM.

For `CC(C)(C)c1nnc(-c2cnn3ccc(N4C[C@@H](F)C[C@H]4c4cc(F)ccc4F)nc23)o1` [Chemical Compound 27, 2-tert-butyl-5-(5-((2S,4S)-2-(2,5-difluorophenyl)-4-fluoropyrrolidin-1-yl)pyrazolo[1,5-a]pyrimidin-3-yl)-1,3,4-oxadiazole], the half-maximal inhibitory concentration (IC50) in the test on TF-1 cells was more than 1000 nM; in the test on KM12-luc cells, more than 1000 nM; at TRK A, B & C kinase, more than 100 nM.

As to `COc1ncc(F)cc1C1CCCN1c1ccn2ncc(-c3nnc(C(C)(C)C)o3)c2n1` (stereo not drawn) [Chemical Compound 28, 2-tert-butyl-5-(5-(2-(5-fluoro-2-methoxypyridin-3-yl)pyrrolidin-1-yl)pyrazolo[1,5-a]pyrimidin-3-yl)-1,3,4-oxadiazole], the half-maximal inhibitory concentration (IC50) is less than 10 nM in the test with TF-1 cells; less than 10 nM with KM12-luc cells; less than 10 nM at TRK A, B & C kinase.

Consider `Fc1ccc(F)c(C2CCCN2c2ccn3ncc(-c4cnco4)c3n2)c1` (stereo not drawn) [Chemical Compound 29, 5-(5-(2-(2,5-difluorophenyl)pyrrolidin-1-yl)pyrazolo[1,5-a]pyrimidin-3-yl)oxazole], for which the IC50 in the test with TF-1 cells is less than 100 nM; in the test with KM12-luc cells it was less than 100 nM; at TRK A, B & C kinase, less than 10 nM.

`Fc1ccc(F)c(C2CCCN2c2ccn3ncc(-c4cnoc4)c3n2)c1` (stereo not drawn) [Chemical Compound 30, 4-(5-(2-(2,5-difluorophenyl)pyrrolidin-1-yl)pyrazolo[1,5-a]pyrimidin-3-yl)isoxazole]: the IC50 with TF-1 cells was less than 100 nM; in the test with KM12-luc cells it was less than 100 nM; at TRK A, B & C kinase, less than 10 nM.

The values are drawn from patent publication US9701681B2, “Fused ring heteroaryl compounds and their use as Trk inhibitors” (CMG Pharmaceutical Co., Ltd., priority 2014, dated 2017).
